According to patent US8722656B2, “Cephalosporins useful as antibacterial agents” (Zoetis LLC, priority 2011, dated 2014):
≈ marks a conversion by molar mass, not a printed value.

Legend:
P. multo 43719 = experiment: Dilution antimicrobial susceptibility test (M07-A8), P. multocida; format: cell-based; conditions: Pasteurella multocida; antibacterial activity by dilution susceptibility test, isolate 43719
Experimental: (§1) Compounds of the present invention were tested against an assortment of Gram-negative and Gram-positive organisms using the industrial standard techniques described in Methods for Dilution Antimicrobial Susceptibility Tests for Bacteria That grow Aerobically; Approved Standard-Eighth Edition, […]-A8, Vol. 29 No. 2 Replaces […]-A7 Vol. 26 No. 2. […] When comparing the activity against these isolates with that of the marketed human health drug of cefepime (screened in the same panel), the exemplified compounds of the present invention show >200 times more selectivity over E. coli.

M. haemo 43411 = experiment: Dilution antimicrobial susceptibility test (M07-A8), M. haemolytica; format: cell-based; conditions: Mannheimia haemolytica; antibacterial activity by dilution susceptibility test, isolate 43411
Experimental: as §1

E. coli 25922 = experiment: Dilution antimicrobial susceptibility test (M07-A8), E. coli; format: cell-based, Escherichia coli; conditions: for MIC: Escherichia coli, antibacterial activity by dilution susceptibility test, isolate 25922; for E. coli/P. multocida: selectivity for P. multocida over E. coli (ratio of the two values)
Experimental: as §1

MIC (P. multo 43719) [µg/mL] | MIC (E. coli 25922) [µg/mL] | SMILES | MIC (M. haemo 43411) [µg/mL] | E. coli/P. multocida (E. coli 25922)
0.03 (≈ 0.0529 µM) | 8 (≈ 14.1 µM) | CO/N=C(\C(=O)N[C@@H]1C(=O)N2C(C(=O)O)=C(Cc3cccc(NS(C)(=O)=O)c3)CS[C@H]12)c1csc(N)n1 [Example 17, (6R,7R)-7-{[(2Z)-2-(2-amino-1,3-thiazol-4-yl)-2-(methoxyimino)acetyl]amino}-3-{3-[(methylsulfonyl)amino]benzyl}-8-oxo-5-thia-1-azabicyclo[4.2.0]oct-2-ene-2-carboxylic acid] | 0.015 (≈ 0.0265 µM) | 266
0.125 (≈ 0.21 µM) | 32 (≈ 53.8 µM) | CO/N=C(\C(=O)N[C@@H]1C(=O)N2C(C(=O)O)=C(Cc3cc(NS(C)(=O)=O)c(C)cc3C)CS[C@H]12)c1csc(N)n1 [Example 15, (6R,7R)-7-{[(2Z)-2-(2-amino-1,3-thiazol-4-yl)-2-(methoxyimino)acetyl]amino}-3-{2,4-dimethyl-5-[(methylsulfonyl)amino]benzyl}-8-oxo-5-thia-1-azabicyclo[4.2.0]oct-2-ene-2-carboxylic acid] | 0.5 (≈ 0.841 µM) | 256
0.25 (≈ 0.424 µM) | 32 (≈ 54.3 µM) | CO/N=C(\C(=O)N[C@@H]1C(=O)N2C(C(=O)O)=C(Cc3c(C)ccc(CSC(C)=O)c3C)CS[C@H]12)c1csc(N)n1 [Example 4, (6R,7R)-3-{3-[(acetylsulfanyl)methyl]-2,6-dimethylbenzyl}-7-{[(2Z)-2-(2-amino-1,3-thiazol-4-yl)-2-(methoxyimino)acetyl]amino}-8-oxo-5-thia-1-azabicyclo[4.2.0]oct-2-ene-2-carboxylic acid] | 0.5 (≈ 0.848 µM) | 128
0.06 (≈ 0.097 µM) | 32 (≈ 51.7 µM) | CO/N=C(\C(=O)N[C@@H]1C(=O)N2C(C(=O)O)=C(Cc3cccc(N(C)C(=O)CSC(C)=O)c3)CS[C@H]12)c1csc(N)n1 [Example 10] | 0.125 (≈ 0.202 µM) | 533
0.06 (≈ 0.101 µM) | 16 (≈ 26.8 µM) | CO/N=C(\C(=O)N[C@@H]1C(=O)N2C(C(=O)O)=C(Cc3cc(NS(C)(=O)=O)cc(OC)c3)CS[C@H]12)c1csc(N)n1 [Example 18, (6R,7R)-7-{[(2Z)-2-(2-amino-1,3-thiazol-4-yl)-2-(methoxyimino)acetyl]amino}-3-{3-methoxy-5-[(methylsulfonyl)amino]benzyl}-8-oxo-5-thia-1-azabicyclo[4.2.0]oct-2-ene-2-carboxylic acid] | 0.08 (≈ 0.134 µM) | 266
0.25 (≈ 0.374 µM) | 64 (≈ 95.7 µM) | CO/N=C(\C(=O)N[C@@H]1C(=O)N2C(C(=O)O)=C(Cc3cc(S(=O)(=O)NCCSC(C)=O)ccc3C)CS[C@H]12)c1csc(N)n1 [Example 20, (6R,7R)-3-(5-{[2-(acetylsulfanyl)ethyl]sulfamoyl}-2-methylbenzyl)-7-{[(2Z)-2-(2-amino-1,3-thiazol-4-yl)-2-(methoxyimino)acetyl]amino}-8-oxo-5-thia-1-azabicyclo[4.2.0]oct-2-ene-2-carboxyl is acid] | 0.25 (≈ 0.374 µM) | 256
0.06 (≈ 0.0968 µM) | 32 (≈ 51.6 µM) | CO/N=C(\C(=O)N[C@@H]1C(=O)N2C(C(=O)O)=C(Cc3c(C)c(CO)cc(CSC(C)=O)c3C)CS[C@H]12)c1csc(N)n1 [Example 5, (6R,7R)-3-{3-[(acetylsulfanyl)methyl]-5-(hydroxymethyl)-2,6-dimethylbenzyl}-7-{[(2Z)-2-(2-amino-1,3-thiazol-4-yl)-2-(methoxyimino)acetyl]amino}-8-oxo-5-thia-1-azabicyclo[4.2.0]oct-2-ene-2-carboxylic acid] | 0.125 (≈ 0.202 µM) | 533
0.03 (≈ 0.0439 µM) | 32 (≈ 46.9 µM) | CCN(CCSC(C)=O)S(=O)(=O)c1cccc(CC2=C(C(=O)O)N3C(=O)[C@@H](NC(=O)/C(=N\OC)c4csc(N)n4)[C@H]3SC2)c1 [Example 21, (6R,7R)-3-(3-{[2-(acetylsulfanyl)ethyl](ethyl)sulfamoyl}benzyl)-7-{[(2Z)-2-(2-amino-1,3-thiazol-4-yl)-2-(methoxyimino)acetyl]amino}-8-oxo-5-thia-1-azabicyclo[4.2.0]oct-2-ene-2-carboxylic acid] | 0.125 (≈ 0.183 µM) | 1066
0.03 (≈ 0.0504 µM) | 16 (≈ 26.9 µM) | CO/N=C(\C(=O)N[C@@H]1C(=O)N2C(C(=O)O)=C(Cc3cc(NS(C)(=O)=O)cc(C)c3C)CS[C@H]12)c1csc(N)n1 [Example 14, (6R,7R)-7-{[(2Z)-2-(2-amino-1,3-thiazol-4-yl)-2-(methoxyimino)acetyl]amino}-3-{2,3-dimethyl-5-[(methylsulfonyl)amino]benzyl}-8-oxo-5-thia-1-azabicyclo[4.2.0]oct-2-ene-2-carboxylic acid] | 0.06 (≈ 0.101 µM) | 533
0.06 (≈ 0.097 µM) | 16 (≈ 25.9 µM) | CO/N=C(\C(=O)N[C@@H]1C(=O)N2C(C(=O)O)=C(Cc3cc(NC(=O)CSC(C)=O)ccc3C)CS[C@H]12)c1csc(N)n1 [Example 8, (6R,7R)-3-(5-{[(acetylsulfanyl)acetyl]amino}-2-methylbenzyl)-7-{[(2Z)-2-(2-amino-1,3-thiazol-4-yl)-2-(methoxyimino)acetyl]amino}-8-oxo-5-thia-1-azabicyclo[4.2.0]oct-2-ene-2-carboxyl is acid] | 0.06 (≈ 0.097 µM) | 266
0.25 (≈ 0.424 µM) | 32 (≈ 54.3 µM) | CO/N=C(\C(=O)N[C@@H]1C(=O)N2C(C(=O)O)=C(Cc3c(C)cc(CSC(C)=O)cc3C)CS[C@H]12)c1csc(N)n1 [Example 6, (6R,7R)-3-{4-[(acetylsulfanyl)methyl]-2,6-dimethylbenzyl}-7-{[(2Z)-2-(2-amino-1,3-thiazol-4-yl)-2-(methoxyimino)acetyl]amino}-8-oxo-5-thia-1-azabicyclo[4.2.0]oct-2-ene-2-carboxylic acid] | 0.5 (≈ 0.848 µM) | 128
0.015 (≈ 0.0258 µM) | 4 (≈ 6.89 µM) | CNS(=O)(=O)c1ccc(C)c(CC2=C(C(=O)O)N3C(=O)[C@@H](NC(=O)/C(=N\OC)c4csc(N)n4)[C@H]3SC2)c1 [Example 24, (6R,7R)-7-{[(2Z)-2-(2-amino-1,3-thiazol-4-yl)-2-(methoxyimino)acetyl]amino}-3-[2-methyl-5-(methylsulfamoyl)benzyl]-8-oxo-5-thia-1-azabicyclo[4.2.0]oct-2-ene-2-carboxylic acid] | 0.008 (≈ 0.0138 µM) | 266
0.06 (≈ 0.097 µM) | 16 (≈ 25.9 µM) | CO/N=C(\C(=O)N[C@@H]1C(=O)N2C(C(=O)O)=C(Cc3cccc(NC(=O)CSC(C)=O)c3C)CS[C@H]12)c1csc(N)n1 [Example 7, (6R,7R)-3-(3-{[(acetylsulfanyl)acetyl]amino}-2-methylbenzyl)-7-{[(2Z)-2-(2-amino-1,3-thiazol-4-yl)-2-(methoxyimino)acetyl]amino}-8-oxo-5-thia-1-azabicyclo[4.2.0]oct-2-ene-2-carboxyl is acid] | 0.06 (≈ 0.097 µM) | 266
0.03 (≈ 0.0517 µM) | 16 (≈ 27.6 µM) | CO/N=C(\C(=O)N[C@@H]1C(=O)N2C(C(=O)O)=C(Cc3cccc(N(C)S(C)(=O)=O)c3)CS[C@H]12)c1csc(N)n1 [Example 16, (6R,7R)-7-{[(2Z)-2-(2-amino-1,3-thiazol-4-yl)-2-(methoxyimino)acetyl]amino}-3-{3-[methyl(methylsulfonyl)amino]benzyl}-8-oxo-5-thia-1-azabicyclo[4.2.0]oct-2-ene-2-carboxylic acid] | 0.03 (≈ 0.0517 µM) | 533
